# Columns and labels:
# [1] = system: LAN-6 neuroblastoma cells; assay: DIMSCAN cytotoxicity assay, LAN-6; format: cell-based, human; conditions: +144 hours; for cell survival on addition of safingol to the retinoid: retinoid plus safingol 3:1 molar ratio vs retinoid alone
# Experimental: Cytotoxicity is determined using the DIMSCAN assay system (R. Proffitt et al., Cytometry 24, 204-213 (1996); T. Frgala et al., Proc. AACR, 36, 303 (1995). The system employs digital imaging microscopy to quantify viable cells, which selectively accumulate fluorescein diacetate to become brightly fluorescent. The system is capable of measuring cytotoxicity over a 4-5 log dynamic range by quenching the residual fluorescence of dead and dying cells with eosin Y and quantifying the total fluorescence of viable cells using digital thresholding. Measured fluorescence is directly proportionate to the number of viable cells. […] In brief, 5000 to 10,000 SK-N-RA neuroblastoma cells/well are replicate plated into 60 wells of a 96-well tissue culture plate in 0.1 cc media and allowed to attach overnight. Drug(s) are then added in 0.05 cc media to the final concentrations indicated. There are 12 wells treated per drug concentration. Twelve wells receive drug-vector only to the appropriate final concentration and serve as controls for the plate. Cells are incubated for 96-120 hours at 37° C. in 5% CO2. Fluorescein diacetate is then added to each well in 0.05 cc media to a final concentration of 8 microgram/cc. Cells are incubated for a further 15 minutes at 37° C. and 0.03 cc of 0.5% eosin Y is added to each well. Total fluorescence of viable cells is then measured by digital imaging microscopy.
# (§1) Methods. Cells were added in 100 μL whole medium per well to 96-well microplates for DIMSCAN cytotoxicity assay as previously described. Cell lines used were the neuroblastoma cell lines CHLA-90 and LAN-6. At Time=0, either all-trans-retinoic acid (ATRA), 13-cis-retinoic acid (13-cis-RA) or a combination of retinoid plus safingol at a 3:1 molar ratio were added in 50 μL whole medium. Plates were incubated and assayed for cytotoxicity by DIMSCAN assay at +120 for CHLA-90 cells and+144 hours for LAN-6 cells.
# [2] = system: CHLA-90 neuroblastoma cells; assay: DIMSCAN cytotoxicity assay, CHLA-90; format: cell-based; conditions: for cell survival on addition of safingol to the retinoid: retinoid plus safingol 3:1 molar ratio vs retinoid alone; for Combination Index (C.I.) at LD99: PPMP isomer plus HPR at 1:1 micromolar ratio, +96-120 hours
# Experimental: (§2) Cytotoxicity is determined using the DIMSCAN assay system (R. Proffitt et al., Cytometry 24, 204-213 (1996); T. Frgala et al., Proc. AACR, 36, 303 (1995). The system employs digital imaging microscopy to quantify viable cells, which selectively accumulate fluorescein diacetate to become brightly fluorescent. The system is capable of measuring cytotoxicity over a 4-5 log dynamic range by quenching the residual fluorescence of dead and dying cells with eosin Y and quantifying the total fluorescence of viable cells using digital thresholding. Measured fluorescence is directly proportionate to the number of viable cells. A comparison of the total fluorescence of a drug-treated cell population to the fluorescence of a similar number of untreated cells yields a survival fraction. In brief, 5000 to 10,000 SK-N-RA neuroblastoma cells/well are replicate plated into 60 wells of a 96-well tissue culture plate in 0.1 cc media and allowed to attach overnight. Drug(s) are then added in 0.05 cc media to the final concentrations indicated. There are 12 wells treated per drug concentration. Twelve wells receive drug-vector only to the appropriate final concentration and serve as controls for the plate. Cells are incubated for 96-120 hours at 37° C. in 5% CO2. Fluorescein diacetate is then added to each well in 0.05 cc media to a final concentration of 8 microgram/cc. Cells are incubated for a further 15 minutes at 37° C. and 0.03 cc of 0.5% eosin Y is added to each well. Total fluorescence of viable cells is then measured by digital imaging microscopy.
# as §1
# Methods. To determine the manner in which 4-HPR or HPR+safingol induced cell death in neuroblastoma cells, morphological evidence of apoptosis and/or necrosis was assessed in CHLA-90 cells in the presence or absence of a specific as inhibitor of apoptosis, the neural cell-penetrant, pan-caspase enzyme inhibitor, BOC-d-fink (Enzyme Systems Products, Livermore, Calif.). […] CHLA-90 cells were plated in duplicate in whole medium in Lab Tek chamber slides (Nunc, Naperville, Ill.), allowed to attach for 24 hours, and then treated in the presence or absence of BOC-d-fink (40 μM) for one hour prior to treatment with HPR (10 μM). Control cells were treated with vehicle solvents of 0. 1% ethanol (4-HPR) and/or 0.2% DMSO (BOC-d-fink). Morphological features of apoptosis (DNA condensation and/or apoptotic bodies) were visualized in undetached cells at +24 or +48 hours using blue nuclear fluorescence induced by the supravital DNA stain Hoechst 33342 (10 μg/ml for 30 mins at 37° C.), while necrotic cells and advanced apoptotic cells were recognized by red fluorescent staining with propidium iodide (0.5 μM/ml). Red fluorescently-staining cells with condensed nuclear remnants were scored as apoptotic cells. For cells assayed at +48 hours, additional BOC-d-fink (40 μM) or appropriate control vehicle was added at +24 hours. Cells were observed using filters appropriate for each dye sequentially on an Olympus Vanox epifluorescence microscope. Mutiple random fields of cells (of ˜100-500 cells each) were counted and photographed for viable cells, apoptotic cells, and necrotic cells. To further examine cells treated with HPR, cytotoxicity assays were performed on CHLA-90 cells pretreated with or without 40 μM BOC-d-fmk for one hour prior to the addition of 4-HPR (3-10 μM) and assayed at +24 hours by DIMSCAN assay to assess the effect of caspase inhibition on viability. […]
# [3] = system: Neuro2a neuroblastoma cells; conditions: cited from earlier work
# CHLA-90 cells = assay: Flow cytometry sub G0/G1 DNA content, CHLA-90; format: cell-based, human; conditions: BOC-d-fmk 40 μM, HPR 10 μM, +24 hours
# [4] = system: SK-N-RA neuroblastoma cells; assay: DIMSCAN cytotoxicity assay, SK-N-RA; format: cell-based; conditions: for Combination Index (C.I.) at LD99: PPMP isomer plus HPR at 1:1 micromolar ratio, +96-120 hours
# Experimental: as §2
# As reported above, we have succeeded in increasing the cytotoxicity of 4-HPR through inhibition of several ceramide-related pathways. Most of the inhibitors used have been only studied in vitro. […]
# Methods. […] Cytotoxocity is expressed as the fraction of cells surviving (Survival Fraction, S.F.). […] Cytotoxic synergy was analyzed by Combination Index (C.I.) analysis calculated at the dose lethal to 99% of exposed cells (LD99). Statistical analysis of the differences in mean cytotoxicity was evaluated by the unpaired, two-sided Student's t test.
# MCF7/GCS cells = assay: DIMSCAN cytotoxicity assay, MCF7/GCS tet OFF vs tet ON; format: cell-based, human; conditions: 96 hours, P<0.005 at >6 μM HPR, safingol 0-4 μM
# From the text: We have shown that HPR generates ceramide in neuroblastoma tumor cell lines in a dose- and time-depenent manner (B. Maurer et al., J. Natl. Cancer Inst. (1999)(in press)). Glucosylceramide (GC) is a nontoxic metabolite of ceramide. Ceramide is converted into glucosylceramide by the action of glucosylceramide synthase (GCS). Glucosylceramide synthase (GCS) has been transfected into human MCF7 breast cancer cells in a tetracycline-inducible expression construct in the MCF7/GCS cell line (Y. Liu et al., J. Biol. Chem. 274:1140-46 (1999)). […] We have exposed MCF7/GCS cells to HPR, safingol and HPR+safingol in the absence, and in the presence, of doxycycline.
# Methods. MCF7/GCS cells were plated and incubated in RPMI medium with 10% fetal bovine serum and 200 microgram/ml Hygromycin B (tet OFF) for DIMSCAN cytotoxicity assays as previously described. To increase GCS expression, MCF7/GCS cells were also incubated in the above medium with 3 microgram/ml doxycycline (tet ON) for three days prior to replating them for DIMSCAN cytotoxicity assay. DIMSCAN assays with doxycycline-induced (tet ON) cells also included 3 microgram/ml doxycycline in the medium. Both “tet OFF” and “tet ON” MCF7/GCS cells were exposed to HPR, safingol and HPR+safingol (3:1 molar ratio) for 96 hours and assayed for survival fraction by DIMSCAN as previously described.
# [5] = Phase I; one hour infusion at 120 mg/m^2; cited from earlier work
smiles,measurement,setting,value
"CC1=C(/C=C/C(C)=C/C=C/C(C)=C\C(=O)O)C(C)(C)CCC1 [13-cis-RA, 13-cis-retinoic acid]",cell survival on addition of safingol to the retinoid,[1],significant decrease in the cell survival
same,cell survival on addition of safingol to the retinoid,[2]; +120 hours,significant decrease in the cell survival
"CC1=C(/C=C/C(C)=C/C=C/C(C)=C/C(=O)O)C(C)(C)CCC1 [ATRA, all-trans-retinoic acid]",increase in the level of ceramide,[3],1.5 ×
same,cell survival on addition of safingol to the retinoid,[1],significant decrease in the cell survival
same,cell survival on addition of safingol to the retinoid,[2]; +120 hours,significant decrease in the cell survival
COC(=O)CC(NC(=O)OC(C)(C)C)C(=O)CF (stereo not drawn) [BOC-d-fmk],sub G0/G1 DNA-fragmentation induced by HPR,CHLA-90 cells,abrogated
"CCCCCCCCCCCCCCCC(=O)NC(CN1CCOCC1)C(O)c1ccccc1 [D,L-erythro-PPMP, 1-phenyl-2-palmitoylamino-3-morpholino-1-propanol]",Combination Index (C.I.) at LD99,[4],< 0.06
same,Combination Index (C.I.) at LD99,[2],0.18
"CCCCCCCCCCCCCCCC(=O)NC(CN1CCOCC1)C(O)c1ccccc1 [D,L-threo-PPMP, 1-phenyl-2-palmitoylamino-3-morpholino-1-propanol]",Combination Index (C.I.) at LD99,[4],< 0.01
same,Combination Index (C.I.) at LD99,[2],< 0.09
"CCCCCCCCCCCCC/C=C/[C@@H](O)[C@H](CO)N(C)C [N-DMS, d-erythro-N,N-dimethylsphingosine]",cytotoxicity when added to fenretinide and PPMP,"[4]; 5 μM fenretinide fixed plus 5 μM PPMP fixed plus N-DMS, 20% O2",increased cytotoxicity
"CCCCCCCCCCCCCCC[C@H](O)[C@@H](N)CO [Safingol, (2S,3S)-2-amino-1,3-octadecanediol]","change of cytotoxicity in tet ON (doxycycline, GCS induced) compared to tet OFF cells",MCF7/GCS cells,no significant decrease
same,Survival Fraction,[1]; safingol alone at 4 μM,0.39
same,reported toxicities,[5],no reported toxicities
same,serum levels during infusion,[5],3000 nM
same,Survival Fraction,"[2]; safingol alone at 4 μM, +120 hours",0.11
